Laboratory results from patent US11406660B2, “Treatment of bone marrow edema (OEDEMA) with polysulfated polysaccharides” (PARADIGM HEALTH SCIENCES PTY LTD, priority 2011, dated 2022).

Key:
OA = settings: cited from earlier work
[1] = cited from earlier work
[2] = tested on: sub-chondral bone contusion (BME); test: Case report Example 3: subject one, knee pain after sub-chondral bone contusion (BME), daily intramuscular PPS; assay type: in vivo, human; settings: for knee pain: 100 mg intramuscular daily
Procedure: For example, in one instance, the pain suffered by a patient was so debilitating that the patient received a total of 7 intramuscular injections (7×1 ml ampoules PPS [7×100 mg]) over a period of 7 day until the pain resolved. This equated to just over 1.0 mg/kg PPS daily.
A healthy person one with genu varum of approximately 5 degrees slipped on a step at an airport terminal while rushing to catch an international flight such that their left foot made an unexpected high impact with the ground. After arriving at their destination late that evening, the person retired for the night but was woken in the early hours of the morning with intense throbbing pain originating from the medial compartment of their left knee joint.

[3] = tested on: subchondral BME in the femoral subchondral bone; test: Case report Example 1: subject, knee injury with subchondral BME, course of PPS injections; assay type: in vivo, human; settings: for BME on T1 weighted MRI: subject, one week after completing 10 x 100 mg/ml IM injections, FIG. 1B vs FIG. 1A
Procedure: FIG. 1A is an MRI (T1 weighted scans) of subject […] showing the presence of bone marrow edema in the subchondral bone of the in left femoral condyle. Edema is evidenced by the reduced intensity of the signals in the semi-circular region beneath the articular cartilage. The MRI was taken 5 days following initial joint injury; and
FIG. 1B is an MRI (T1 weighted scans) of subject […] taken one week after completing a course of 10×100 mg/ml IM injection of pentosan polysulfate. […] Magnification of MRI image shown is slightly higher than for FIG. 1A.
A subject ([…]) in good general health while jogging on the footpath stumbled and fell laterally striking the pavement with their right knee. Next day the knee was swollen and extremely painful and when examined by a medical practitioner was diagnosed as avulsion of the collateral ligament attachment to tibial bone. […] Five days after sustaining the injury surgical repair was undertaken to re-attach the free ligament bone insertion to the tibia. However the knee pain persisted thereafter and was not relieved by use of analgesics or NSAIDs. Five weeks after the surgery a course of PPS, 100 mg/ml injections administered intramuscularly twice weekly for 5 weeks was initiated (total of 10 injections). After receiving the 6th injection, the pain and joint swelling had disappeared and one week after completion of the PPS course of injections the joint was again reviewed by T1 weighted MM.

pentosan polysulfate [PPS]
symptoms in patients with OA (OA): symptomatic relief | anticoagulant activity compared with heparin [1]: weaker anticoagulant than heparin | pain ([2]; a patient, 7 intramuscular injections (7 x 100 mg) over 7 days, just over 1.0 mg/kg daily): resolved | knee pain ([2]; subject one, after the 7th injection): completely resolved | knee pain ([2]; subject one, following the 5th injection): substantially subsided | recurrence of debilitating joint pain ([2]; subject one, subsequent months following the PPS course of therapy): did not re-occur | pain and joint swelling ([3]; subject three, 100 mg/ml intramuscularly twice weekly for 5 weeks, after the 6th injection): disappeared | BME on T1 weighted MRI [3]: completely resolved | BME on T1 weighted MRI ([3]; listed as pentosan polysulfate): absence of bone marrow edema
